Experiments:
Assay type in all cases: in vivo
[1] = system: upland rice (Oryza sp., var. Tebonnet, RICE); assay: Post-emerge test, crop safety; details: phytotoxicity rating 0-100 (0 no damage, 100 complete death), 14 days after application
Procedure, shortened: (§1)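 Applied at 15–1000 g ai/ha from acetone in 187 l/ha spray volume. Post-emergence applications included 0.25% v/v non-ionic surfactant and reached plants sown 8–21 days before. Pre-emergence applications were incorporated by surface watering. Efficacy or crop damage was rated on a 0–100 scale after 14 days.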

[2] = system: field corn (Zea mays L., var. Dekalb 535, CORN); assay: Post-emerge test, crop safety; details: phytotoxicity rating 0-100 (0 no damage, 100 complete death), 14 days after application
Procedure, shortened: as §1

[3] = system: redroot pigweed (Amaranthus retroflexus, AMARE); assay: Pre-emerge test, greenhouse herbicide activity screening; details: pre-emerge, rated 14 days after application, 0 = no damage, 100 = complete death
Procedure, shortened: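 Rating: 0–100 visual injury, 14 DAA. Application: acetone, 187 l/ha, 15–1000 g ai/ha, flat-fan track sprayer with nozzle 40–45 cm above soil or canopy. Post-emerge runs used 0.25% v/v surfactant on 2–3 leaf plants.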

[4] = system: common ragweed (Ambrosia artemisizfolia L., AMBEL); assay: as above; details: pre-emerge, rated 14 days after application, 0 = no damage, 100 = complete death
Procedure, shortened: as §1

[5] = system: barnyardgrass (Echinochloa crus-galli, ECHCG); assay: as above; details: pre-emerge, rated 14 days after application, 0 = no damage, 100 = complete death
Procedure, shortened: as §1

[6] = system: green foxtail (Setaria viridis, SETVI); assay: as above; details: pre-emerge, rated 14 days after application, 0 = no damage, 100 = complete death
Procedure, shortened: as §1

[7] = system: lambsquarters (Chenopodium album, CHEAL); assay: as above; details: pre-emerge, rated 14 days after application, 0 = no damage, 100 = complete death
Procedure, shortened: as §1

[8] = system: large crabgrass (Digitaria sanguinalis, DIGSA); assay: as above; details: pre-emerge, rated 14 days after application, 0 = no damage, 100 = complete death
Procedure, shortened: as §1

[9] = system: johnsongrass (Sorghum halepense, SORHA); assay: as above; details: pre-emerge, rated 14 days after application, 0 = no damage, 100 = complete death
Procedure, shortened: as §1

[10] = system: ivyleaf morningglory (Ipomoea hederacea, IPOHE); assay: as above; details: pre-emerge, rated 14 days after application, 0 = no damage, 100 = complete death
Procedure, shortened: as §1

[11] = system: sicklepod (Cassia obtusifolia, CASOB); assay: as above; details: pre-emerge, rated 14 days after application, 0 = no damage, 100 = complete death
Procedure, shortened: as §1

[12] = system: velvetleaf (Abutilon theophrasti, ABUTH); assay: as above; details: pre-emerge, rated 14 days after application, 0 = no damage, 100 = complete death
Procedure, shortened: as §1

[13] = system: common ragweed (Ambrosia artemisizfolia L., AMBEL); assay: Post-emerge test, greenhouse herbicide activity screening; details: phytotoxicity rating 0-100 (0 no damage, 100 complete death), 14 days after application
Procedure, shortened: (§2)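 Compounds in acetone were track-sprayed at 15–1000 g ai/ha: pre-emergence onto soil sown the previous day, then top-watered to incorporate and later bottom-watered; post-emergence onto 2–3 leaf plants with 0.25% v/v surfactant, bottom-watered only. Ratings on a 0–100 phytotoxicity scale were taken at day 14.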

[14] = system: barnyardgrass (Echinochloa crus-galli, ECHCG); assay: as above; details: phytotoxicity rating 0-100 (0 no damage, 100 complete death), 14 days after application
Procedure, shortened: as §2

[15] = system: green foxtail (Setaria viridis, SETVI); assay: as above; details: phytotoxicity rating 0-100 (0 no damage, 100 complete death), 14 days after application
Procedure, shortened: as §2

[16] = system: lambsquarters (Chenopodium album, CHEAL); assay: as above; details: phytotoxicity rating 0-100 (0 no damage, 100 complete death), 14 days after application
Procedure, shortened: as §2

[17] = system: redroot pigweed (Amaranthus retroflexus, AMARE); assay: as above; details: phytotoxicity rating 0-100 (0 no damage, 100 complete death), 14 days after application
Procedure, shortened: as §2

[18] = system: large crabgrass (Digitaria sanguinalis, DIGSA); assay: as above; details: phytotoxicity rating 0-100 (0 no damage, 100 complete death), 14 days after application
Procedure, shortened: as §2

[19] = system: ivyleaf morningglory (Ipomoea hederacea, IPOHE); assay: as above; details: phytotoxicity rating 0-100 (0 no damage, 100 complete death), 14 days after application
Procedure, shortened: as §2

[20] = system: sicklepod (Cassia obtusifolia, CASOB); assay: as above; details: phytotoxicity rating 0-100 (0 no damage, 100 complete death), 14 days after application
Procedure, shortened: as §2

[21] = system: velvetleaf (Abutilon theophrasti, ABUTH); assay: as above; details: phytotoxicity rating 0-100 (0 no damage, 100 complete death), 14 days after application
Procedure, shortened: as §2

[22] = system: upland rice (Oryza sp., var. Tebonnet, RICE); assay: Pre-emerge test, crop safety; details: pre-emerge, rated 14 days after application, 0 = no damage, 100 = complete death
Procedure, shortened: as §1

[23] = system: field corn (Zea mays L., var. Dekalb 535, CORN); assay: Pre-emerge test, crop safety; details: pre-emerge, rated 14 days after application, 0 = no damage, 100 = complete death
Procedure, shortened: as §1

CCOc1c(Cl)cc(F)c(-n2c(=O)cc(C(F)(F)F)n(C)c2=O)c1N [Compound 1-61]
10: Post-emerge Herbicidal Activity RICE (crop damage) ([1]; 63 g ai/ha) | Post-emerge Herbicidal Activity CORN (crop damage) ([2]; 63 g ai/ha) | Post-emerge Herbicidal Activity ECHCG ([14]; 250 g ai/ha) | Post-emerge Herbicidal Activity SETVI ([15]; 63 g ai/ha) | Post-emerge Herbicidal Activity DIGSA ([18]; 63 g ai/ha)
100: Pre-emerge Herbicidal Activity AMARE (phytotoxicity rating, scale 0-100) ([3]; 250 g ai/ha) | Pre-emerge Herbicidal Activity AMBEL (phytotoxicity rating, scale 0-100) ([4]; 250 g ai/ha) | Pre-emerge Herbicidal Activity SETVI (phytotoxicity rating, scale 0-100) ([6]; 250 g ai/ha) | Pre-emerge Herbicidal Activity CHEAL (phytotoxicity rating, scale 0-100) ([7]; 63 g ai/ha) | Pre-emerge Herbicidal Activity CHEAL (phytotoxicity rating, scale 0-100) ([7]; 250 g ai/ha) | Pre-emerge Herbicidal Activity ABUTH (phytotoxicity rating, scale 0-100) ([12]; 63 g ai/ha) | Pre-emerge Herbicidal Activity ABUTH (phytotoxicity rating, scale 0-100) ([12]; 250 g ai/ha) | Post-emerge Herbicidal Activity IPOHE ([19]; 63 g ai/ha) | Post-emerge Herbicidal Activity IPOHE ([19]; 250 g ai/ha) | Post-emerge Herbicidal Activity ABUTH ([21]; 250 g ai/ha)
40: Pre-emerge Herbicidal Activity DIGSA (phytotoxicity rating, scale 0-100) ([8]; 63 g ai/ha)
60: Pre-emerge Herbicidal Activity AMBEL (phytotoxicity rating, scale 0-100) ([4]; 63 g ai/ha) | Pre-emerge Herbicidal Activity IPOHE (phytotoxicity rating, scale 0-100) ([10]; 63 g ai/ha) | Post-emerge Herbicidal Activity CASOB ([20]; 63 g ai/ha) | Pre-emerge crop damage CORN (phytotoxicity rating, scale 0-100) ([23]; 63 g ai/ha)
35: Post-emerge Herbicidal Activity RICE (crop damage) ([1]; 250 g ai/ha)
85: Post-emerge Herbicidal Activity AMBEL ([13]; 250 g ai/ha)
95: Pre-emerge Herbicidal Activity AMARE (phytotoxicity rating, scale 0-100) ([3]; 63 g ai/ha) | Pre-emerge Herbicidal Activity SETVI (phytotoxicity rating, scale 0-100) ([6]; 63 g ai/ha) | Pre-emerge crop damage RICE (phytotoxicity rating, scale 0-100) ([22]; 250 g ai/ha) | Pre-emerge crop damage CORN (phytotoxicity rating, scale 0-100) ([23]; 250 g ai/ha)
99: Pre-emerge Herbicidal Activity ECHCG (phytotoxicity rating, scale 0-100) ([5]; 250 g ai/ha) | Pre-emerge Herbicidal Activity DIGSA (phytotoxicity rating, scale 0-100) ([8]; 250 g ai/ha) | Pre-emerge Herbicidal Activity SORHA (phytotoxicity rating, scale 0-100) ([9]; 250 g ai/ha)
50: Post-emerge Herbicidal Activity AMARE ([17]; 63 g ai/ha) | Pre-emerge crop damage RICE (phytotoxicity rating, scale 0-100) ([22]; 63 g ai/ha)
80: Pre-emerge Herbicidal Activity CASOB (phytotoxicity rating, scale 0-100) ([11]; 250 g ai/ha)
30: Post-emerge Herbicidal Activity CORN (crop damage) ([2]; 250 g ai/ha) | Pre-emerge Herbicidal Activity CASOB (phytotoxicity rating, scale 0-100) ([11]; 63 g ai/ha) | Post-emerge Herbicidal Activity SETVI ([15]; 250 g ai/ha) | Post-emerge Herbicidal Activity CHEAL ([16]; 63 g ai/ha) | Post-emerge Herbicidal Activity DIGSA ([18]; 250 g ai/ha)
75: Pre-emerge Herbicidal Activity ECHCG (phytotoxicity rating, scale 0-100) ([5]; 63 g ai/ha)
90: Pre-emerge Herbicidal Activity IPOHE (phytotoxicity rating, scale 0-100) ([10]; 250 g ai/ha)
70: Pre-emerge Herbicidal Activity SORHA (phytotoxicity rating, scale 0-100) ([9]; 63 g ai/ha) | Post-emerge Herbicidal Activity AMBEL ([13]; 63 g ai/ha) | Post-emerge Herbicidal Activity CHEAL ([16]; 250 g ai/ha) | Post-emerge Herbicidal Activity AMARE ([17]; 250 g ai/ha) | Post-emerge Herbicidal Activity CASOB ([20]; 250 g ai/ha) | Post-emerge Herbicidal Activity ABUTH ([21]; 63 g ai/ha)
0: Post-emerge Herbicidal Activity ECHCG ([14]; 63 g ai/ha)

— patent publication US6355799B1, “Substituted benzene compounds, process for their preparation, and herbicidal and defoliant compositions containing them” (ISK Americas Incorporated, priority 1997, dated 2002)
